From patent EP2465840A1, “Terpene ether” (CABB GmbH, priority 2010, dated 2012)
Entries after “also recorded” stand apart in the source; their conditions may differ.

Assays:
Format in all cases: physicochemical
[1] = Visual evaluation of foam (foam appearance, bubble size); set-up: key to Blasengröße nach 1 min. / Blasengröße nach 5 min.: klein (1); mittel (2); mittel-groß (3); groß (4); sehr groß (5); key to Aussehen des Schaums nach 1 min. / Aussehen des Schaums nach 5 min.: verschwindend (1); locker (2); mittelkompakt (3); sehr kompakt (4)
Description: Die Qualität des Schaums wurde visuell nach der folgenden Methode festgestellt: 100 g der Lösung mit 0,5 % WAS wurden in einen 250 ml Glaszylinder mit Schraubverschluss und einem Innendurchmesser von 35 mm überführt. Der Zylinder wurde 10 mal gedreht und die Blasengröße und die Schaumkompaktheit wurden nach einer Minute nach dem Mischen und nach 5 Minuten ermittelt. Dabei erfolgte die Beurteilung auf der Grundlage der folgenden beschreibenden Parameter:
Aussehen des Schaums: verschwindend (1), locker (2), mittelkompakt (3), sehr kompakt (4)
Blasengröße: klein (1), mittel (2), mittel-groß (3), groß (4), sehr groß (5) Tabelle 4: […]

[2] = pH of cleaning formulation after addition of terpene ether
[3] = Brookfield viscosity (25°C) of cleaning formulation 24 h after addition of terpene ether
Description: Im Rahmen der vorliegenden Erfindung wird die Brookfield-Viskosität einer wässrigen Zusammensetzung vorzugsweise mittels einem RTV Brookfield-Viskosimeter bei 25°C ermittelt, besonders bevorzugt mit einer Spindel # 3 oder # 4.
Die in Tabelle 1 angegebene Reinigungsformulierung wurde untersucht. Tabelle 1: Reinigungsformulierung (WAS 15 %)
Zu dieser Formulierung wurden NP 1 oder NP 27 gegeben. Die gemessenen Brookfield-Viskositätswerte nach 24 Stunden werden in Tabelle 2 und 3 zusammengefasst. Tabelle 2: Brookfield-Viskosität (25°C)
Zu dieser Formulierung wurden NP 1 oder NP 27 sowie danach Natriumchlorid gegeben. Die gemessenen Brookfield-Viskositätswerte nach 24 Stunden werden in den folgenden Tabellen zusammengefasst. Tabelle 13: Brookfield-Viskosität (25°C)

[4] = Foam height and foam stability of formulation; settings: for h1: Schaumhöhe 5 Minuten nach dem Mischen; for h1 / h0: Lösung mit 0,5 % WAS; for h0: Schaumhöhe eine Minute nach dem Mischen; for Stabilität: Schaumstabilität (h1/h0)*100
Description: Die Schaumhöhe der Formulierungen wurde nach folgender Methode ermittelt: In einem 400 ml Becher wurden 100 g einer wässrigen Lösung mit 0,5 % WAS hergestellt. Für eine Minute wurde die Lösung bei […] runden […] wurde die […] Minute […]0) und 5 […]. Die Schaumstabilität in % ergibt sich dann über (h1/h0)*100.

[5] = Appearance of cleaning formulation after 24 h
[6] = Reinigungsformulierung enthaltend Coco Glucosid, +0,5 %
[7] = Reinigungsformulierung enthaltend Coco Glucosid, +1 %
[8] = Reinigungsformulierung enthaltend Coco Glucosid, +5 %
[9] = Reinigungsformulierung enthaltend Dinatriumlaurylsuccinat (wässrig), +0,5 %
[10] = Reinigungsformulierung enthaltend Dinatriumlaurylsuccinat (wässrig), +1 %
[11] = Reinigungsformulierung enthaltend Dinatriumlaurylsuccinat (wässrig), +5 %
[12] = Reinigungsformulierung enthaltend Dinatriumlaurylsuccinat (wässrig), +0,5 %, nach 24 Stunden
[13] = Reinigungsformulierung enthaltend Dinatriumlaurylsuccinat (wässrig), +1 %, nach 24 Stunden
[14] = Reinigungsformulierung enthaltend Dinatriumlaurylsuccinat (wässrig), +5 %, nach 24 Stunden
[15] = Reinigungsformulierung enthaltend Natriumlaurylethersulfat, Dinatriumcocoamphodiacetat, 0,5 % NaCl, +0,5 %, nach 24 Stunden
[16] = Reinigungsformulierung enthaltend Natriumlaurylethersulfat, Dinatriumcocoamphodiacetat, 0,5 % NaCl, +0,25 %, nach 24 Stunden
[17] = Reinigungsformulierung enthaltend Natriumlaurylethersulfat, Dinatriumcocoamphodiacetat, 0,5 % NaCl, +1 %, nach 24 Stunden
[18] = Reinigungsformulierung enthaltend Natriumlaurylethersulfat, Dinatriumcocoamphodiacetat, 0,5 % NaCl, +2 %, nach 24 Stunden
[19] = Reinigungsformulierung enthaltend Natriumlaurylethersulfat, Dinatriumcocoamphodiacetat, 1 % NaCl, +0,5 %, nach 24 Stunden
[20] = Reinigungsformulierung enthaltend Natriumlaurylethersulfat, Dinatriumcocoamphodiacetat, 1 % NaCl, +0,25 %, nach 24 Stunden
[21] = Reinigungsformulierung enthaltend Natriumlaurylethersulfat, Dinatriumcocoamphodiacetat, 1 % NaCl, +1 %, nach 24 Stunden
[22] = Reinigungsformulierung enthaltend Natriumlaurylethersulfat, Dinatriumcocoamphodiacetat, 1 % NaCl, +2 %, nach 24 Stunden
[23] = Reinigungsformulierung enthaltend Natriumlaurylethersulfat, Dinatriumcocoamphodiacetat, +0,5 %, nach 24 Stunden
[24] = Reinigungsformulierung enthaltend Natriumlaurylethersulfat, Dinatriumcocoamphodiacetat, +0,25 %, nach 24 Stunden
[25] = Reinigungsformulierung enthaltend Natriumlaurylethersulfat, Dinatriumcocoamphodiacetat, +1 %, nach 24 Stunden
[26] = Reinigungsformulierung enthaltend Natriumlaurylethersulfat, Dinatriumcocoamphodiacetat, +2 %, nach 24 Stunden
[27] = Reinigungsformulierung enthaltend Coco Glucosid, 0,5 %
[28] = Reinigungsformulierung enthaltend Coco Glucosid, 1 %
[29] = Reinigungsformulierung enthaltend Coco Glucosid, 5 %
[30] = Reinigungsformulierung enthaltend Dinatriumlaurylsuccinat (wässrig), 0,5 %
[31] = Reinigungsformulierung enthaltend Dinatriumlaurylsuccinat (wässrig), 1 %
[32] = Reinigungsformulierung enthaltend Dinatriumlaurylsuccinat (wässrig), 5 %

CC1(C)C2CCC1(C)C(OCC(O)CO)C2 (stereo not drawn) [NP 1, Glycerin-isobornylether]
Aussehen des Schaums nach 1 min. [1, 6]: 3
Aussehen des Schaums nach 5 min. [1, 6]: 1
Blasengröße nach 1 min. [1, 6]: 3
Blasengröße nach 5 min. [1, 6]: 5
Aussehen des Schaums nach 1 min. [1, 7]: 3
Aussehen des Schaums nach 5 min. [1, 7]: 1
Blasengröße nach 1 min. [1, 7]: 3
Blasengröße nach 5 min. [1, 7]: 5
Aussehen des Schaums nach 1 min. [1, 8]: 3
Aussehen des Schaums nach 5 min. [1, 8]: 1
Blasengröße nach 1 min. [1, 8]: 3
Blasengröße nach 5 min. [1, 8]: 5
Aussehen des Schaums nach 1 min. [1, 9]: 3
Aussehen des Schaums nach 5 min. [1, 9]: 2
Blasengröße nach 1 min. [1, 9]: 3
Blasengröße nach 5 min. [1, 9]: 4
Aussehen des Schaums nach 1 min. [1, 10]: 3
Aussehen des Schaums nach 5 min. [1, 10]: 2
Blasengröße nach 1 min. [1, 10]: 3
Blasengröße nach 5 min. [1, 10]: 4
Aussehen des Schaums nach 1 min. [1, 11]: 3
Aussehen des Schaums nach 5 min. [1, 11]: 1
Blasengröße nach 1 min. [1, 11]: 4
Blasengröße nach 5 min. [1, 11]: 5
pH [2, 6]: 6
pH [2, 7]: 6
pH [2, 8]: 6
pH [2, 9]: 6,3
pH [2, 10]: 6,3
pH [2, 11]: 6,3
BF-Viskosität (2,5 rpm) [3, 6]: 18200 mPas
BF-Viskosität (5 rpm) [3, 6]: 17800 mPas
BF-Viskosität (2,5 rpm) [3, 7]: 3400 mPas
BF-Viskosität (5 rpm) [3, 7]: 3300 mPas
BF-Viskosität (2,5 rpm) [3, 8]: 1600 mPas
BF-Viskosität (5 rpm) [3, 8]: 1100 mPas
BF-Viskosität (2,5 rpm) [3, 12]: 6200 mPas
BF-Viskosität (5 rpm) [3, 12]: 6100 mPas
BF-Viskosität (2,5 rpm) [3, 13]: 17600 mPas
BF-Viskosität (5 rpm) [3, 13]: 17200 mPas
BF-Viskosität (2,5 rpm) [3, 14]: 3800 mPas
BF-Viskosität (5 rpm) [3, 14]: 1800 mPas
BF-Viskosität (2,5 rpm) [3, 15]: 22800 mPas
BF-Viskosität (5 rpm) [3, 15]: 21000 mPas
BF-Viskosität (2,5 rpm) [3, 16]: 17200 mPas
BF-Viskosität (5 rpm) [3, 16]: 16100 mPas
BF-Viskosität (2,5 rpm) [3, 17]: 32000 mPas
BF-Viskosität (5 rpm) [3, 17]: 29600 mPas
BF-Viskosität (2,5 rpm) [3, 18]: 12800 mPas
BF-Viskosität (5 rpm) [3, 18]: 12600 mPas
BF-Viskosität (2,5 rpm) [3, 19]: 37600 mPas
BF-Viskosität (5 rpm) [3, 19]: 33200 mPas
BF-Viskosität (2,5 rpm) [3, 20]: 31200 mPas
BF-Viskosität (5 rpm) [3, 20]: 27600 mPas
BF-Viskosität (2,5 rpm) [3, 21]: 38400 mPas
BF-Viskosität (5 rpm) [3, 21]: 36000 mPas
BF-Viskosität (2,5 rpm) [3, 22]: 4400 mPas
BF-Viskosität (5 rpm) [3, 22]: 4200 mPas
BF-Viskosität (2,5 rpm) [3, 23]: 10400 mPas
BF-Viskosität (5 rpm) [3, 23]: 10200 mPas
BF-Viskosität (2,5 rpm) [3, 24]: 7200 mPas
BF-Viskosität (5 rpm) [3, 24]: 7200 mPas
BF-Viskosität (2,5 rpm) [3, 25]: 22800 mPas
BF-Viskosität (5 rpm) [3, 25]: 22000 mPas
BF-Viskosität (2,5 rpm) [3, 26]: 18400 mPas
BF-Viskosität (5 rpm) [3, 26]: 18200 mPas
h1 [4, 27]: 200 mm
h0 [4, 27]: 230 mm
Stabilität [4, 27]: 87%
h1 [4, 28]: 210 mm
h0 [4, 28]: 235 mm
Stabilität [4, 28]: 89%
h1 [4, 29]: 230 mm
h0 [4, 29]: 260 mm
Stabilität [4, 29]: 88%
h1 [4, 30]: 220 mm
h0 [4, 30]: 245 mm
Stabilität [4, 30]: 90%
h1 [4, 31]: 225 mm
h0 [4, 31]: 250 mm
Stabilität [4, 31]: 90%
h1 [4, 32]: 225 mm
h0 [4, 32]: 250 mm
Stabilität [4, 32]: 90%
Aussehen nach 24 h [5, 6]: transparent; also recorded: Gel-flüssig
Aussehen nach 24 h [5, 7]: transparent; also recorded: flüssig
Aussehen nach 24 h [5, 8]: weiß and flüssig
Aussehen nach 24 h [5, 9]: transparent; also recorded: flüssig
Aussehen nach 24 h [5, 10]: transparent; also recorded: Gel-flüssig
Aussehen nach 24 h [5, 11]: weiß and flüssig
Aussehen nach 24 h ([5]; Reinigungsformulierung enthaltend Natriumlaurylethersulfat, Dinatriumcocoamphodiacetat, 0,5 % NaCl, +0,5 %): transparent Gel-flüssig
Aussehen nach 24 h ([5]; Reinigungsformulierung enthaltend Natriumlaurylethersulfat, Dinatriumcocoamphodiacetat, 0,5 % NaCl, +0,25 %): transparent Gel-flüssig
Aussehen nach 24 h ([5]; Reinigungsformulierung enthaltend Natriumlaurylethersulfat, Dinatriumcocoamphodiacetat, 0,5 % NaCl, +1 %): transparent Gel
Aussehen nach 24 h ([5]; Reinigungsformulierung enthaltend Natriumlaurylethersulfat, Dinatriumcocoamphodiacetat, 0,5 % NaCl, +2 %): transparent flüssig
Aussehen nach 24 h ([5]; Reinigungsformulierung enthaltend Natriumlaurylethersulfat, Dinatriumcocoamphodiacetat, 1 % NaCl, +0,5 %): transparent Gel
Aussehen nach 24 h ([5]; Reinigungsformulierung enthaltend Natriumlaurylethersulfat, Dinatriumcocoamphodiacetat, 1 % NaCl, +0,25 %): transparent Gel
Aussehen nach 24 h ([5]; Reinigungsformulierung enthaltend Natriumlaurylethersulfat, Dinatriumcocoamphodiacetat, 1 % NaCl, +1 %): transparent Gel
Aussehen nach 24 h ([5]; Reinigungsformulierung enthaltend Natriumlaurylethersulfat, Dinatriumcocoamphodiacetat, 1 % NaCl, +2 %): transparent flüssig
Aussehen nach 24 h ([5]; Reinigungsformulierung enthaltend Natriumlaurylethersulfat, Dinatriumcocoamphodiacetat, +0,5 %): transparent flüssig
Aussehen nach 24 h ([5]; Reinigungsformulierung enthaltend Natriumlaurylethersulfat, Dinatriumcocoamphodiacetat, +0,25 %): transparent flüssig
Aussehen nach 24 h ([5]; Reinigungsformulierung enthaltend Natriumlaurylethersulfat, Dinatriumcocoamphodiacetat, +1 %): transparent Gel-flüssig
Aussehen nach 24 h ([5]; Reinigungsformulierung enthaltend Natriumlaurylethersulfat, Dinatriumcocoamphodiacetat, +2 %): transparent Gel-flüssig
